Data published in PMC11721293 (JCI Insight, 2025).
Where “and” joins values, the source holds several entries; their conditions need not be identical. Equal values may be shown once. Read-outs that look alike come from different tables or passages of the source.

Columns and labels:
[1] = system: VSV-SARS-CoV-2-S pseudovirus; assay: microbe, parasite or virus in culture; format: cell-based; settings: for EC50: Pseudovirus
[2] = system: SARS-CoV-2 (Wuhan strain); format: cell-based; settings: replicates
SARS-CoV-2 [3] = format: cell-based; settings: for percentage genome copy number relative to DMSO: 48 h, replicates
SARS-CoV-2 [4] = assay: Virus-induced cytopathic effect (CPE) in VeroE6; format: cell-based
SARS-CoV-2 Wuhan = format: cell-based; settings: VeroE6, 10 μM LNF, 24 h, DMSO = 100%
[5] = system: SARS-CoV-2 BA.4.6 (Omicron); format: cell-based; settings: VeroE6, 10 μM LNF, 24 h, DMSO = 100%
[6] = system: SARS-CoV-2 spike protein–mediated cell-cell fusion (Wuhan); format: cell-based; settings: 48 h
[7] = system: SARS-CoV-2 spike protein–mediated cell-cell fusion (B.1.1.7); format: cell-based; settings: 48 h
[8] = system: SARS-CoV-2 spike protein–mediated cell-cell fusion (B.1.315); format: cell-based; settings: B.1.315 (printed), 48 h
[9] = system: SARS-CoV-2 spike protein–mediated cell-cell fusion (BA.1); format: cell-based; settings: 48 h
SARS-CoV-2 viral entry = format: cell-based; settings: for viral entry signal relative to DMSO (sheet 4D): individual replicates, DMSO about 1
SARS-CoV-2 RDPs = assay: microbe, parasite or virus in culture; format: cell-based; settings: for EC50: Huh7.5 ACE-TMPRSS2, Gluc RDPs, 24 h
viral RdRp = viral RdRp (Severe acute respiratory syndrome coronavirus 2, UniProt P0DTD1); assay: In vitro RdRp activity assay (RNA extension); format: biochemical, SARS-CoV-2; settings: LNF 0.1, 1 and 10 μM; TEMPOL 100 μM
[10] = system: SARS-CoV-2 strain USA-WA1/2020; format: in vivo, mouse; settings: for Viral titer Log10: individual animals, sheet S9B
[11] = system: SARS-CoV-2 strain USA-WA1/2020; format: in vivo, mouse
[12] = system: SARS-CoV-2 strain USA-WA1/2020; format: in vivo, mouse; remark: listed apart in the source
SARS-CoV-2-WA [13] = format: in vivo, mouse; settings: 50 MPK oral gavage twice daily; day 2
SARS-CoV-2-WA [14] = format: in vivo, mouse; settings: 50 MPK oral gavage twice daily
Calu3 cells = settings: Fig 1F
in vitro [15] = settings: human
in vitro [16] = settings: human; remark: listed apart in the source
[17] = Fifty MPK twice daily; cited from earlier work
lysosomal compartment = assay: LysoTracker staining of VeroTA6 cells
Procedure: (A) VeroTA6 cells were seeded
post treatment, the cells were stained with lysotracker (Thermofisher, L7528) and visualized under
the microscope (left). The fluorescence intensity was captured and quantified for each treatment
B), the significance was calculated using one-way ANOVA with Dunnett’s test with multiple
comparison to the DMSO control, and the P values are depicted as ns for P>0.05, ** for P <0.01,

[18] = Pharmacokinetics after single IP administration; settings: K18-hACE2(Tg) C57Bl/6J, mouse, 40 mg/kg; for Kp / concentration at 24 h / half-life: in vivo, single IP; for Kp: AUC ratio (Tissue/PL); for concentration at 24 h: C24h
[19] = LNF 40 MPK IP, RDV 25 MPK SC, twice daily

NC(=O)N1CCC(CC(=O)N2CCC([C@H]3c4ncc(Br)cc4CCc4cc(Cl)cc(Br)c43)CC2)CC1 [LNF, lonafarnib]
Max % [1]: 100.0% | EC50 ([1]; Calu-3, 24 h, 24 h, read-out: EC50): 3.17 µM | EC50 ([1]; Huh-7, 24 h, 24 h, read-out: EC50): 4.16 µM | EC50 ([1]; Huh-7, read-out: EC50): 4.2 µM | EC50 ([1]; read-out: EC50 values, range over cell lines): 1.5 to 4.16 µM | EC50 ([1]; read-out: EC50): 3.3 µM | percentage of N-positive cells relative to DMSO ([2]; Fig 1B, 5 mM (printed)): 45.291% and 39.2779% and 27.7255% and 32.1523% and 27.1799% and 44.2583% and 28.0879% | percentage of N-positive cells relative to DMSO ([2]; Fig 1B, 10 mM (printed)): 6.293% and 7.566% and 7.349% and 6.272% and 7.2903% and 7.5535% and 6.442% | percentage of N-positive cells relative to DMSO ([2]; Fig 1C, 5 mM (printed)): 10.1344% and 5.318% and 6.858% and 5.707% and 14.6837% and 5.046% and 43.0964% | percentage of N-positive cells relative to DMSO ([2]; Fig 1C, 10 mM (printed)): 4.886% and 4.575% and 6.603% and 7.209% and 6.0224% and 5.548% and 4.54% | reduction of viral genome copy number in infected cells (SARS-CoV-2 [3]; 10 μM, VeroE6 and Calu3): more than 90% | percentage genome copy number relative to DMSO (SARS-CoV-2 [3]; Fig 1D, 5 mM (printed)): 15.7327% and 8.267% and 4.447% | percentage genome copy number relative to DMSO (SARS-CoV-2 [3]; Fig 1D, 10 mM (printed)): 0.3388% and 0.169% and 0.1887% | percentage genome copy number relative to DMSO (SARS-CoV-2 [3]; Fig 1E, 5 mM (printed)): 1.7284% and 12.0506% and 10.6523% and 4.939% | percentage genome copy number relative to DMSO (SARS-CoV-2 [3]; Fig 1E, 10 mM (printed)): 0.1445% and 0.1282% and 0.2571% and 0.1291% | effect on virus-induced CPE (SARS-CoV-2 [4]): rescued the infected cells from virus-induced CPE | % Genome (SARS-CoV-2 Wuhan): 8.96% and 1.08% and 1.45% | % Genome [5]: 1.73% and 1.25% and 0.58% | relative luciferase signals ([6]; 0.3 (printed)): 83.8904 and 99.372 and 100.719 and 105.145 | relative luciferase signals ([6]; 1 (printed)): 76.0312 and 74.8493 and 82.9658 and 76.539 | relative luciferase signals ([6]; 3 (printed)): 82.9427 and 55.6651 and 51.5871 and 56.5775 | relative luciferase signals ([6]; 10 (printed)): 30.6993 and 29.5083 and 34.9918 and 28.4711 | relative luciferase signals ([7]; Conc-mM 0.3 (printed)): 87.1833 and 82.9457 and 81.1177 and 86.5186 | relative luciferase signals ([7]; Conc-mM 1 (printed)): 76.2725 and 76.052 and 86.6016 and 79.6419 | relative luciferase signals ([7]; Conc-mM 3 (printed)): 59.768 and 61.4378 and 52.374 and 53.9099 | relative luciferase signals ([7]; Conc-mM 10 (printed)): 35.1915 and 32.9108 and 27.2582 and 33.268 | relative luciferase signals ([8]; Conc-mM 0.3 (printed)): 107.391 and 104.235 and 80.412 and 106.736 | relative luciferase signals ([8]; Conc-mM 1 (printed)): 99.0641 and 83.1761 and 82.6205 and 92.2492 | relative luciferase signals ([8]; Conc-mM 3 (printed)): 65.2189 and 57.2378 and 55.5623 and 61.7046 | relative luciferase signals ([8]; Conc-mM 10 (printed)): 36.5792 and 34.1792 and 24.08 and 33.4344 | relative luciferase signals ([9]; 0.3 (printed)): 93.9702 and 58.6533 and 53.4918 and 75.0181 | relative luciferase signals ([9]; 1 (printed)): 108.194 and 73.2387 and 73.7551 and 89.5366 | inhibition of viral entry (SARS-CoV-2 viral entry): inhibited viral entry | viral entry signal relative to DMSO (sheet 4D) (SARS-CoV-2 viral entry; TA6 cells): 0.282 and 0.3105 and 0.4405 and 0.3405 and 0.2054 and 0.2625 and 0.3109 and 0.2607 and 0.1876 | viral entry signal relative to DMSO (sheet 4D) (SARS-CoV-2 viral entry; VeroE6 cells): 0.1605 and 0.1408 and 0.1008 and 0.1281 and 0.213 and 0.1543 and 0.08537 and 0.09496 and 0.1294 | EC50 (SARS-CoV-2 RDPs): 10.4 µM | Inhibition (SARS-CoV-2 RDPs; Log[LNF} mM 1): 53.2589 and 40.1773 and 43.3748 and 43.6359 | EC50 (SARS-CoV-2 RDPs; Severe acute respiratory syndrome coronavirus 2, Huh7.5, 24 h): 10.5 µM | polymerase activity, primer extension (viral RdRp): not affected | lung viral titer lower than vehicle-treated group ([10]; 40 MPK IP twice daily, […]): ~2 log | Viral titer Log10 ([10]; D2): 7.238 Log10 and 6.041 Log10 and 6.833 Log10 and 6.059 Log10 and 6.826 Log10 and 4.954 Log10 and 7.083 Log10 and 4.756 Log10 | Viral titer Log10 ([10]; D5): 6.491 Log10 and 7.228 Log10 and 6.919 Log10 and 6.362 Log10 (2×) and 6.681 Log10 and 7.255 Log10 and 4 Log10 and 7.033 Log10 | Titer Log10 ([10]; Day 2, individual animals): 1.954 (5×) and 2 and 4.538 and 2.301 and 3.13 (2×) | Titer Log10 ([10]; Day 5, individual animals): 1.954 (3×) and 2.301 and 3.23 and 3.176 and 2.699 and 2.602 and 3.398 and 2.477 | lung viral titer [10, 19]: significantly lowered the viral titer in the lung | Clinical Score ([11]; Day 5, individual animals): 1 (3×) and 0 (7×) | composite clinical score [11, 19]: much improved disease parameters | Histopathology Score ([12]; Day 2, individual animals): 2 (2×) and 1 and 0.5 and 1.5 (3×) and 0 (3×) | Histopathology Score ([12]; Day 5, individual animals): 0.5 (3×) and 1 (4×) and 2.5 and 1.5 and 0 | lung histopathology score vs vehicle ([12]; day 5): significantly lower histopathology score | lung viral titer (SARS-CoV-2-WA [13]): significantly lower viral titers in the lung | lung histopathology score vs vehicle (SARS-CoV-2-WA [14]): significantly lower histopathology score | CC50 (Calu3 cells): > 30 µM | CC50 (in vitro [15]): > 30 µM | CC50 (in vitro [16]): > 30 µM | toxicity in preclinical mouse studies [17]: without any toxicity | LysoTracker fluorescence intensity (lysosomal compartment; VeroTA6, 10 μM, 30 min): significantly higher fluorescence intensity | Lysotracker (lysosomal compartment; sheet S5A, individual measurements): 1000.41 and 1078.15 and 1357.74 and 1025.55 and 1236.53 and 1375.69 and 1111.13 and 939.183 and 1788.26 and 2301.51 and 898.567 and 730.339 and 642.99 and 1893.93 and 696.429 and 1937.99 and 1199.36 and 1178.39 and 1146.54 and 1719.14 and 1470.88 and 572.253 and 1006.33 | AUC(0-inf) ([18]; brain): 29 µM·h | Cmax ([18]; brain): 1.46 µM | Tmax ([18]; brain): 7 h | AUC(0-inf) ([18]; heart): 987 µM·h | Cmax ([18]; heart): 94.1 µM | Tmax ([18]; heart): 0.5 h | Kp ([18]; Brain): 0.12 | Kp ([18]; Heart): 3.9 | Kp ([18]; Kidney): 2.8 | Kp ([18]; Liver): 12 | Kp ([18]; Lung): 3.1 | concentration at 24 h ([18]; Brain): 0.36 µM | concentration at 24 h ([18]; Heart): 11.4 µM | concentration at 24 h ([18]; Kidney): 8.24 µM | concentration at 24 h ([18]; Liver): 40.3 µM | concentration at 24 h ([18]; Lung): 8.17 µM | concentration at 24 h ([18]; Plasma): 2.76 µM | half-life ([18]; t1/2, Brain): 8.3 h | half-life ([18]; t1/2, Heart): 10.1 h | half-life ([18]; t1/2, Kidney): 9 h | half-life ([18]; t1/2, Liver): 10.7 h | half-life ([18]; t1/2, Lung): 8.7 h | half-life ([18]; t1/2, Plasma): 8.8 h | AUC(0-inf) ([18]; kidney): 699 µM·h | Cmax ([18]; kidney): 46 µM | Tmax ([18]; kidney): 1 h | AUC(0-inf) ([18]; liver): 3060 µM·h | Cmax ([18]; liver): 224 µM | Tmax ([18]; liver): 0.25 h | AUC(0-inf) ([18]; lung): 788 µM·h | Cmax ([18]; lung): 93.5 µM | Tmax ([18]; lung): 0.25 h | AUC(0-inf) ([18]; plasma): 253 µM·h | Cmax ([18]; plasma): 63.3 µM | Tmax ([18]; plasma): 0.08 h
